Data: patent US20240376163A1, “PEPTIDE FOR INHIBITING CALCINEURIN AND USE THEREOF” (Seoul National University R&DB Foundation, priority 2023, published 2024)
Like-named read-outs stand apart in the source and are kept apart here.

Experiments:
CNAβ2 [1] = target: T1, CNAβ2 (Homo sapiens, UniProt P16298); experiment: Mammalian two-hybrid assay (GAL4 DBD-peptides, VP16 AD-CNAβ2, pG5-luc) in HEK293T cells; format: cell-based
T1 construct: expressed in transfected cells; host or cells: HEK293T
Method: (§1) To measure the transcriptional activity of NFAT, Jurkat T cells were cotransfected with GST-tagged peptides and NFAT-luc by electroporation. After 24 hours, the cells were pretreated with 0.5 μM FK506 for 1 hour and then treated with 40 nM PMA and 1 μM ionomycin for 8 hours. For mammalian two-hybrid assay, HEK293T cells were cotransfected with GAL4 DBD-tagged CABIN1, VIVIT, chimeric, and substituted peptides, VP16 activation domain-tagged CNAβ2, and pG5-luc (a luciferase reporter plasmid containing the GAL4 reaction promoter) for 24 hours. Harvested cells were lysed with luciferase assay lysis buffer (17 mM KH2PO4, 183 mM K2HPO4, pH 7.8, 0.2% [v/v] Triton X-100) and sonicated briefly. The luciferase activity against each cell lysate was measured using Infinite M200 (Tecan, Männedorf, and Switzerland). In addition, the expression level of the transfected protein was confirmed by Western blotting.

p38a [2] = target: T2, p38a (Homo sapiens, UniProt Q16539); experiment: In vitro kinase assay; format: biochemical; details: purified GST-tagged peptide
Method: (§2) Purified GST-tagged peptides were used for the in vitro kinase assay using activated recombinant kinase obtained from Proqinase GmbH (Freiburg, Germany). Kinase reactions were induced in reaction buffer (50 mM HEPES-NaOH, pH 7.5, 3 mM MgCl2, 3 mM MnCl2, 3 μM sodium orthobanadate, 1 mM dithiothreitol, 50 μM unlabeled ATP, 5 μCi 32P-γ-ATP) for 1 hour at 30° C. The reaction was stopped by the addition of 5× sample buffer, and proteins were isolated using SDS-PAGE. The gels were stained with Coomassie Brilliant Blue, dried, and developed on X-ray film.

ERK2 = target: T3, ERK2 (Homo sapiens, UniProt P28482); experiment: In vitro kinase assay; format: biochemical; details: purified GST-tagged peptide
T3 construct: purchased Proqinase GmbH (Freiburg, Germany)
Method: as §2

JNK1 = target: T4, JNK1 (Homo sapiens, UniProt P45983); experiment: In vitro kinase assay; format: biochemical; details: purified GST-tagged peptide
T4 construct: purchased Proqinase GmbH (Freiburg, Germany)
Method: as §2

CNA [3] = experiment: Ka (1/MS)
Method: (§3) Table printed on a drawing sheet, FIG. 7G
Head of the field: Ka (1/MS)
(§4) FIG. 7A is the sequence of the CABIN1 peptide with a threonine to valine substitution (TV). […] In FIG. 7C, a luciferase reporter assay was performed to measure NFAT transcriptional activity in Jurkat T cells expressing GST-tagged CABIN1 peptides under PMA and ionomycin treatment (n=3). […] CNA bound to the peptide and phosphorylated threonine were detected by Western blotting. In FIG. 7E, phosphorylation of the 9th threonine of the CABIN1 peptide (threonine 2154 of full-length CABIN1) was detected by LC-MS/MS in Jurkat T cells. In FIG. 7F, an in vitro pull-down assay was performed using streptavidin-coupled agarose beads. CNA bound to the biotinylated peptide was detected with a His antibody. VEET peptide was used as a negative control. In FIG. 7G, CNA binding to biotinylated CABIN1 peptide according to the presence or absence of phosphorylation of the 9th threonine was measured by SPR. CNA concentration ranges are 1.25, 2.5, 5, and 10 nM. The kinetics of the interaction were calculated using the data of the CABIN1 peptide-captured cells minus the negative control peptide-captured cell. The values shown are mean±standard deviation. RU: […], NC: negative control.
(§5) First copying reader's note: SPR binding kinetics of the peptides to CNA; each cell holds the value together with its ± deviation. […]

CNA [4] = experiment: Kd (1/S)
Method: as §3
Head of the field: Kd (1/S)
as §4, §5

Jurkat T cells = experiment: DMOG treatment of Jurkat T cells expressing CABIN1 peptide, immunoprecipitation and Western blotting; format: cell-based
Method: In FIG. 6A, Jurkat T cells expressing HA-mCherry-tagged CABIN1 peptide were treated with DMOG for 12 hours in a dose-dependent manner. In FIG. 6B, Jurkat T cells expressing HA-mCherry-tagged CABIN1 peptide were treated with 500 μM DMOG over time. Each cell lysate was immunoprecipitated with HA antibodies, and CNA bound to CABIN1 peptides was detected by Western blotting. HIF-1α was used as a positive control for DMOG treatment. In FIG. 6C, HEK293T cells were transfected with GST-tagged peptides and subjected to GST pull-down assay. Hydroxyproline and O-linked glycosylation of each peptide were detected by Western blotting. NC: negative control.
(§6) Cells were lysed in IP150 buffer and immunoprecipitated Flag- and HA-tagged proteins using Anti-FLAG® M2 Affinity Gel (Sigma-Aldrich) and Pierce™ Anti-HA Agarose (Thermo Fisher Scientific), respectively. Conventional methods were used to construct the buffer and subsequent processes (Kim, H. J. et al. Nuclear Acids Res. 46, 6544-6560 (2018)). To quantify the Western blotting results, band regions were measured using ImageJ (https://imagej.nih.gov/ij/).

CNA [5] = details: SPR, CNA 1.25-10 nM
Method: Biacore T200 (Cytiva) was used to capture biotin-labeled peptides on the surface of Series S Sensor Chip SA (Cytiva). […] Each cycle was performed at 25° C. with 120 seconds of contact and 240 seconds of dissociation at a flow rate of 30 μl/min. The kinetics of the interaction were analyzed using BIAvaluation 3.2 RC1 (Cytiva).

CNA [6] = details: biotin-labeled peptides
Method: (§7) A His-pulldown assay was performed with 0.5 ml of IP150 buffer containing 0.5 mM EDTA. His-tagged CNA and GST-tagged peptides were mixed and captured on Ni-NTA agarose beads (Qiagen, Hilden, Germany). The beads were washed three times with binding buffer, and the proteins were analyzed by Western blotting. GST-tagged peptides were pulled down using Glutathione Sepharose™ 4 Fast Flow (Cytiva, Marlborough, MA, USA), and biotin-labeled peptides were pulled down using Streptavidin Agarose Resin (Thermo Fisher Scientific).

p38a [7] = target: T2, p38a; experiment: p38 inhibitor treatment of Jurkat T cells expressing CABIN1 peptide, immunoprecipitation and Western blotting; format: cell-based; design: endogenous in cells; host or cells: Jurkat T (E6-1); details: 10 μM, 16 hours
Method: In FIG. 8A, Jurkat T cells expressing HA-mCherry-tagged CABIN1 peptide were treated with 40 nM PMA in a time-dependent manner. Phosphorylated threonine in peptides immunoprecipitated with HA antibody was detected with [PXpTP] antibody. […] In FIG. 8G, Jurkat T cells expressing HA-mCherry-tagged CABIN1 peptide were treated with 10 μM p38a inhibitor for 16 hours. Immunoprecipitation was performed with HA antibody and detected by Western blotting. In FIG. 8H, phosphorylated threonine and peptide-bound CNA in FIG. 8G were measured using ImageJ, and the ratio of phosphorylation and calcineurin bound to CABIN1 peptide was calculated (n=6). The values shown are mean±standard deviation. Statistical differences were determined using one-way analysis of variance. * p<0.05, ** p<0.01, *** p<0.001, CBB: Coomassie Brilliant Blue, NC: negative control.
Cells were lysed in IP150 buffer and immunoprecipitated Flag- and HA-tagged proteins using Anti-FLAG® M2 Affinity Gel (Sigma-Aldrich) and Pierce™ Anti-HA Agarose (Thermo Fisher Scientific), respectively. […] To quantify the Western blotting results, band regions were measured using ImageJ (https://imagej.nih.gov/ij/).

CNAβ2 [8] = target: T1, CNAβ2; experiment: Immunoprecipitation assay of Flag-CNAβ2 and tagged peptides in HEK293T cells; format: cell-based
Method: as §6

[9] = system: NFAT transcriptional activity; experiment: NFAT luciferase reporter assay in Jurkat T cells expressing GST-tagged peptides; format: cell-based; details: PMA and ionomycin treatment
Method: as §1

CNA [10] = experiment: In vitro His-pull down assay with purified protein; format: binding
Method: as §7

T2 sequence (Q16539 whole entry): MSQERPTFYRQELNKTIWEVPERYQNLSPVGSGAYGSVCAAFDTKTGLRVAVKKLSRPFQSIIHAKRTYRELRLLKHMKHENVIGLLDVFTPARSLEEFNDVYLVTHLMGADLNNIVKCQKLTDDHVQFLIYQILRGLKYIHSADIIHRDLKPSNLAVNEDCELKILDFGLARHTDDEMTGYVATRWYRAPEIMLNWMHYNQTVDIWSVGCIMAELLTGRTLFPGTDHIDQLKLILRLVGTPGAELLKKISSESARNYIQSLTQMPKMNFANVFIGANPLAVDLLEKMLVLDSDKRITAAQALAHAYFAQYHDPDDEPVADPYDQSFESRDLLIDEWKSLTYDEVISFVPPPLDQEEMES
T1 sequence (P63098 2-170 partner limits assumed, other chains not shown): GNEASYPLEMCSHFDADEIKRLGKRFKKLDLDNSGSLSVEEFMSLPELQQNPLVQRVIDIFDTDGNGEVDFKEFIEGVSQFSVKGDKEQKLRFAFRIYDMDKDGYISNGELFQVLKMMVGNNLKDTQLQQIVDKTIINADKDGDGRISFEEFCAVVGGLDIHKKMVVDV
T3 sequence (P28482 whole entry): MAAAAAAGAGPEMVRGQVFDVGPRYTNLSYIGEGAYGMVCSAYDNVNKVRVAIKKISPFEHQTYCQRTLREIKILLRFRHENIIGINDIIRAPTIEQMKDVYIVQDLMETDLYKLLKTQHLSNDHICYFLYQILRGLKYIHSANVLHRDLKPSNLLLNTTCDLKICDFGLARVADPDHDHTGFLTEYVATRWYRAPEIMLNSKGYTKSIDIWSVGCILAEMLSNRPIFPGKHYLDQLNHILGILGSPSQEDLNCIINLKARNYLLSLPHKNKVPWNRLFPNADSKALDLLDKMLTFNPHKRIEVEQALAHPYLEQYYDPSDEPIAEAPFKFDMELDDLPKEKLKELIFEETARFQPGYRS
T4 sequence (P45983 whole entry): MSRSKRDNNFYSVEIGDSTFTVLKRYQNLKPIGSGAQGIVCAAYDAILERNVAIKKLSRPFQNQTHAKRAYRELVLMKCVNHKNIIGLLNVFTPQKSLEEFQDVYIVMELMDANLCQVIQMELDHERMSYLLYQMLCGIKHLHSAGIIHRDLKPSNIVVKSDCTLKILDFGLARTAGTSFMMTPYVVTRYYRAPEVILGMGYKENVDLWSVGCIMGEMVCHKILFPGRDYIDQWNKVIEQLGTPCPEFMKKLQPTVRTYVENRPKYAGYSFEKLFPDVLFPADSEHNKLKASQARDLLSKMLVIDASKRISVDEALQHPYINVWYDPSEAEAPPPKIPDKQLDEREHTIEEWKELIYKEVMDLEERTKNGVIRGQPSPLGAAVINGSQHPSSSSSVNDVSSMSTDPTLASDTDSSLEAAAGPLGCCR

Molecule: MAGFPPEITVTPPTP [CABIN1-L-1] [listing 1 of 2 here]
- binding to CNA (CNAβ2 [1]; GAL4 DBD-tagged peptides, VP16 activation domain-tagged CNA, HEK293T): significantly stronger affinity for CNA than CABIN1-14

Molecule: PVIVITPPTP [VIVIT PPTP]
- phosphorylation by p38a (p38a [2]): phosphorylate
- phosphorylation by ERK2 (ERK2): phosphorylate
- phosphorylation by JNK1 (JNK1): phosphorylate
- improvement of interaction with CNA, VIVIT PPTP vs. VIVIT 10-mer (CNAβ2 [1]; C-terminus PPTP sequence): 4.76 fold
- improvement of interaction with CNA, VIVIT PPTP vs. L-1-2 WT (CNAβ2 [1]; N-terminus PVIVIT): 1.93 fold

Molecule: MAGFPPEITVTPPTP [CABIN1-L-1] [listing 2 of 2 here]
- association rate constant (kon) (CNA [3]): 2613.3±421.5 1/MS
- dissociation rate constant (koff) (CNA [4]): 1.31e-3±6.1e-5 1/S

Molecule: COC(=O)CNC(=O)C(=O)OC [DMOG, dimethyloxalylglycine]
- interaction between CABIN1 peptide and CNA (Jurkat T cells; DMOG dose-dependent 12 hours or 500 μM over time): had no effect on the interaction between CABIN1 peptide and CNA
- HIF-1α stabilization (Jurkat T cells; positive control for DMOG treatment): stabilized HIF-1α

Molecule: Biotin-AAAMAGFPPEITVTPP {pTHR} P [phosphorylated CABIN1-L-1]
- increase of binding affinity to CNA, phosphorylated vs unphosphorylated CABIN1 peptide (CNA [5]; listed as phosphorylated CABIN1 peptide): about three times
- increase of binding affinity to CNA, phosphorylated vs unphosphorylated CABIN1 peptide (CNA [5]; listed as phosphorylated CABIN1 peptides): approximately three-fold
- affinity for CNA (pull-down) (CNA [6]): dramatically increased the affinity for CNA

Molecule: Cc1ccccc1C(=O)c1ccc(Nc2ccc(Br)cc2N)cc1Cl [EO 1428]
- binding affinity of CABIN1 peptide for CNA (p38a [7]): reducing binding affinity for CNA
- phosphorylation of the CABIN1 peptide (p38a [7]): significantly reduced phosphorylation of the CABIN1 peptide

Molecule: T9V: CABIN1 peptide with threonine 9 (threonine 2154 of full-length CABIN1) replaced with valine (PEITVTPPVP; left off: a dimerising Fc or GST; small tags and cut ends)
- interaction with CNA in cells (CNAβ2 [8]): loss of interaction in cell experiments
- NFAT transcriptional activity (luciferase activity) [9]: restored the transcriptional activity of NFAT inhibited by the wild-type CABIN1 peptide more efficiently than the T6V substitution

Molecule: T6V: CABIN1 peptide with threonine 6 (threonine 2151 of full-length CABIN1) replaced with valine (PEITVVPPTP; left off: a dimerising Fc or GST; small tags and cut ends)
- interaction with CNA in cells (CNAβ2 [8]): loss of interaction between the CABIN1 peptide and CNA in cells and in vitro
- binding to CNA in vitro (CNA [10]): loss of interaction between the CABIN1 peptide and CNA in cells and in vitro
